Assays:
mTORC1 = molecular target: T1, mTORC1 (Homo sapiens, UniProt P42345+P62942); assay: Western blot of PC3 cells, 24 h at 100 nM, comparison with commercial rapalogs, mTORC1 (p-S6K); type: cell-based
T1 construct: endogenous in cells; host or cells: PC3 cells
Description: (§1) PC3 cells were maintained in F12K media supplemented with 10% FBS, 1% Penicillin/Streptomycin, and 2 mM L-Glutamine and cultured at 37° C. Cells were treated with 100 nM Rapamycin, Temsirolimus, Everolimus, and rapalog compounds 390, 394, 824, 384 or 405 for 24 h and harvested in RIPA buffer (300 mM NaCl, 1.0% NP-40, 0.5% sodium deoxycholate, 0.1% SDS, 50 mM Tris pH 8.0. Protein concentrations were determined using the DC protein assay (Biorad).
(§2) Equal amounts of protein were resolved by SDS-PAGE and transferred to nitrocellulose membrane using the Invitrogen Nu-Page system. The membranes were blocked for 1 h in 5% milk and incubated overnight in the appropriate antibodies. The following day, blots were washed 3 times in TBST, incubated for 2 h with secondary antibodies (donkey anti rabbit hrp conjugated), and finally washed an additional 3 times in TBST. ECL Prime (Amersham) was used to detect the proteins of interest and blots were quantified using ImageJ software.

mTORC2 = molecular target: T2, mTORC2 (Homo sapiens, UniProt P42345+P62942); assay: Western blot of PC3 cells, 24 h at 100 nM, comparison with commercial rapalogs, mTORC2 (p-Akt); type: cell-based; details: PC-3, read-out: mTORC2 (p-Akt) activity, % of control
T2 construct: endogenous in cells; host or cells: PC3 cells
T2 sequence (P62942 2-108 limits assumed, other chains not shown): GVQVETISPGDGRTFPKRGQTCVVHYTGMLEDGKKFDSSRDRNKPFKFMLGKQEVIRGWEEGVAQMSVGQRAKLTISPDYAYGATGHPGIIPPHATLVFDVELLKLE
Description: as §1, §2

[1] = Plasma lipid levels after chronic i.p. dosing; type: in vivo, female C57BL/6J mice; details: rapamycin 8 mg/kg, compound 390 12 mg/kg i.p. every other day; versus vehicle
Description: (§3) 10-week old female C57BL/6J mice were given intraperitoneal injections of 8 mg/kg rapamycin (LC laboratories), 12 mg/kg compound 390 or vehicle every other day for three weeks (N=5 mice/group), such as to mimic chronic exposure conditions. 24 hours after the last injection, tissues were dissected from the mice and immediately frozen in liquid nitrogen. The tissues were homogenized using the Omni TH homogenizer (Omni International) on ice in RIPA buffer and then centrifuged at 13,000 rpm for 15 minutes at 4° C. The supernatants were collected and protein concentration was determined using the DC protein assay (Biorad).
Plasma lipid levels were determined at the end of the three-week exposure. Free fatty acids in the serum were measured by the HR Series NEFA-HR(2) (Wako Diagnostics, Richmond, Va.). Triglycerides and cholesterol in serum were measured by Triglycerides Liquicolor Test and Cholesterol Liquicolor Test (Stanbio laboratory, Boerne, Tex.), respectively.

[2] = Steady state glucose levels after one week of i.p. dosing; type: in vivo, female C57BL/6J mice; details: 8 mg/kg i.p. every other day
Description: as §3
Steady state glucose levels were determined after one week from study initiation using a Bayer Contour blood glucose meter and test strips from small blood samples, which were withdrawn from a tail vein nick. At the end of the second week, the animals were challenged by administration of 2 mg/kg glucose; glucose levels were determined for two hours following the challenge at 30 min intervals.

[3] = Glucose challenge response; type: in vivo, female C57BL/6J mice; details: 2 mg/kg glucose after 1 week; rapamycin 8 mg/kg, compound 390 12 mg/kg i.p. every other day
Description: as §3
Steady state glucose levels were determined after one week from study initiation using a Bayer Contour blood glucose meter and test strips from small blood samples, which were withdrawn from a tail vein nick. […]

[4] = Insulin challenge response; type: in vivo, female C57BL/6J mice; details: 0.75 IU/kg insulin after 2 weeks; rapamycin 8 mg/kg, compound 390 12 mg/kg i.p. every other day
Description: FIG. 10. Response to insulin challenge following administration of 0.75 IU/kg insulin at t=2 weeks following the initiation of the intraperitoneal administrations of 8 mg/kg rapamycin, 12 mg/kg compound 390 or vehicle control every other day in female mice (N=5).
as §3

[5] = Glucose tolerance test after 2 weeks of chronic dosing; type: in vivo, male C57BL/6J mice; details: rapamycin 8 mg/kg, compound 390 12 mg/kg every other day, male mice
Description: Fortyfive C57BL/6J male mice, housed three per cage, were weighed and their body composition was measured with an EchoMRI 3-in-1 system. […] Mice received every-other-day injections of either vehicle, rapamycin (8 mg/kg), or compound 390 (12 mg/kg). A glucose tolerance test was performed after 2 weeks (morning after the 8th injection). A pyruvate tolerance test was performed after 3 weeks. Glucose stimulated insulin secretion assay was performed after 4 weeks and additional blood was collected for whole blood analysis. Body composition was measured on day −2 and day 31.
Mice were fasted overnight for 16 hours and then injected with either glucose (1 g/kg) or pyruvate (2 g/kg) intraperitoneally. For glucose and pyruvate tolerance tests, small blood samples were taken from a tail vein nick at time intervals and read using a Bayer Contour blood glucose meter and test strips. For glucose-stimulated insulin secretion, blood glucose levels were read using a glucometer and then 50 μL of blood was collected into a heparinized tube immediately prior to and 15 minutes following glucose administration. Insulin levels were determined using a Mouse Insulin ELISA kit (Crystal Chem).

[6] = Fat mass by EchoMRI body composition after four weeks; type: in vivo, male C57BL/6J mice; details: 4 weeks of every other day administration; rapamycin 8 mg/kg, compound 390 12 mg/kg; versus vehicle
Description: Fortyfive C57BL/6J male mice, housed three per cage, were weighed and their body composition was measured with an EchoMRI 3-in-1 system. Cages were sorted into three groups—vehicle, rapamycin, and compound 390—such that the average weight was similar for all three groups. Mice received every-other-day injections of either vehicle, rapamycin (8 mg/kg), or compound 390 (12 mg/kg). A glucose tolerance test was performed after 2 weeks (morning after the 8th injection). A pyruvate tolerance test was performed after 3 weeks. Glucose stimulated insulin secretion assay was performed after 4 weeks and additional blood was collected for whole blood analysis. Body composition was measured on day −2 and day 31.

SMILES: CO[C@H]1C[C@@H]2CC[C@@H](C)[C@@](O)(O2)C(=O)C(=O)N2CCCC[C@H]2C(=O)O[C@H]([C@H](C)C[C@@H]2CC[C@@H](OCCO)[C@H](OC)C2)CC(=O)[C@H](C)/C=C(\C)[C@@H](O)[C@@H](OC)C(=O)[C@H](C)C[C@H](C)/C=C/C=C/C=C/1C [Everolimus]
- mTORC1 (p-S6K) inhibition (mTORC1): performed identically to rapamycin
- remaining activity at 0.1 µM (mTORC2): ~5%

SMILES: CO[C@H]1C[C@@H]2CC[C@@H](C)[C@@](O)(O2)C(=O)C(=O)N2CCCC[C@H]2C(=O)O[C@H]([C@H](C)C[C@@H]2CC[C@@H](O)[C@H](OC)C2)CC(=O)[C@H](C)/C=C(\C)[C@@H](O)[C@@H](OC)C(=O)[C@H](C)C[C@H](C)/C=C/C=C/C=C/1C [Rapamycin]
- remaining activity at 0.1 µM (mTORC2): ~5%
- plasma free fatty acids [1]: substantial and statistically significant increase
- glucose steady state level [2]: ~75 mg/dL
- increase of glucose steady state level from baseline [2]: approx. 55%
- increase of glucose steady state level versus vehicle-receiving animals [2]: 3 fold
- glucose response after glucose challenge (glucose intolerance) [3]: deviates significantly from the response observed with the control animals
- glucose response after insulin challenge (insulin resistance) [4]: deviates significantly from the response observed with the control animals
- glucose tolerance test ([5]; after 2 weeks): impaired glucose and pyruvate tolerance tests
- fasting hyperglycemia ([5]; chronic dosing): induced
- fat mass (adiposity) [6]: statistically significant increase of fat mass

SMILES: CO[C@H]1C[C@@H]2CC[C@@H](C)[C@@](O)(O2)C(=O)C(=O)N2CCCC[C@H]2C(=O)O[C@H]([C@H](C)C[C@@H]2CC[C@@H](OC(=O)C(C)(CO)CO)[C@H](OC)C2)CC(=O)[C@H](C)/C=C(\C)[C@@H](O)[C@@H](OC)C(=O)[C@H](C)C[C@H](C)/C=C/C=C/C=C/1C [Temsirolimus]
- mTORC1 (p-S6K) inhibition (mTORC1): performed identically to rapamycin
- remaining activity at 0.1 µM (mTORC2): ~5%

Reference: patent US20180258100A1, “RAPAMYCIN ANALOGS SHOWING IMPROVED mTORC1 SPECIFICITY” (priority 2015, published 2018)
